Data on 6 molecules can be found in US8715668B2, “Antibody selective for a tumor necrosis factor-related apoptosis-inducing ligand receptor DR5 and uses thereof” (The UAB Research Foundation, priority 2000, dated 2014).

The subject of data set [1] is MMP-1, 3, and 13. Briefly: ELISA of MMP production by RA synovial cells. It is filed as cell-based, human. As to conditions: overnight; 50 ng/ml interleukin 1b, 10 ng/ml TNF-α, 50 ng/ml TRAIL, 50 ng/ml TRA-8. On the procedure: Thus, it is possible that TRAIL, like TNF-α, may serve as a pro-inflammatory cytokine. […] The levels of the MMP-1 and MMP-3 in the culture supernatants are determined by the ELISA kits.

Data set [2] relates to CLL B cells. Briefly: Cytotoxicity to CLL B cells in vitro. As to conditions: compared to normal primary B cells. It is filed as cell-based, human.
Data set [3] relates to breast cancer lines. Briefly: Combined cytotoxicity of TRA-8 with adriamycin. It is filed as cell-based, human.
Data set [4] concerns normal human hepatocytes. Briefly: Viability of normal human hepatocytes (ATPLite). It counts as cell-based. The source says: For 24-hour cell viability assays, fresh normal human hepatocytes in 96-well plates were purchased from In Vitro Technology (Baltimore, Md.). […] For 6-hour viability assays, normal hepatocytes or hepatocellular cancer cells are isolated from fresh surgical specimens collected from UAB Tissue Procurement Center. All reagents for isolation of human hepatocytes including hepatocytes perfusion buffer, digest medium, washing medium, and attachment medium were purchased from Gibco. The tissue slides are digested in the Hepatocyte Digest Medium at 37° C. with shaking (50 rpm) for one hour. The isolated hepatocytes are harvested by low speed centrifugation (50 g, 3 min), and washed with the Hepatocyte Washing Medium six times. Single cell suspension of hepatocytes are cultured in the Attachment Medium containing 10% FCS in 96-well Matrigel plates (BD) for six hours. Non-attached hepatocytes are removed by twice washing with pre-warmed attachment medium.
(In ATP-based viability assays light output follows the ATP content of the culture.)

Data set [5] relates to OA synovial cells. In words: Cell viability of primary cultured OA synovial cells. It is filed as cell-based, human. As to conditions: OA72M. The source says: (§1) Cell viability is the percentage of the cpm of treated cells versus the cpm of untreated cells.
(§2) The expression of DR5 on a panel of eight primary cultured synovial cells from patients with RA is compared with that on eight primary cultured synovial cells from patients with osteoarthritis (hereinafter referred to as “OA”). The eight human primary RA synovial cell cultures RA-1014, RA-1016, RA-1021, RA-512, RA-707, RA-811, RA-716, and RA-929 are kindly provided by Dr. M. Ohtsuki (Sankyo Co. Ltd., Tokyo, Japan) and cultured in DMEM supplemented with 10% FCS, penicillin, streptomycin, and glutamine. The […] OA synovial cell primary cell cultures are isolated from the synovial tissues of OA patients by a standard collagenase method and cultured under the same conditions. The passage number of all primary cells is under 10. The expression of DR5 is determined by FACs analysis as described in Example 5.

The test system of data set [6] is RA synovial cells. Briefly: Cell viability of primary cultured RA synovial cells. It counts as cell-based, human. As to conditions: high concentrations (>50 ng/ml).
Description: as §1, §2

Data set [7] relates to CEM-6. In words: Apoptosis by ATPLite after overnight incubation. It is filed as cell-based, human. On the procedure:
(§3) Cell viability is determined using (1) the ATPLite® kit according to the manufacturer's instructions (Packard Instruments, Meriden, Conn.); (2) the MTT Cell proliferation/viability kit (Sigma); or (3) PI staining of dead cells and analyzed by flow cytometry. At end of culture, cells are stained with 10 μg/ml PI and PI negative cells are gated as viable cells. For analysis of condensed nuclei of hepatocytes, cells are stained with 10 ng/ml Hoechst 33352 (Molecular Probes) and analyzed by flow cytometry.

The subject of data set [8] is EB-3. In words: Apoptosis by ATPLite after overnight incubation. It counts as cell-based, human. On the procedure:
as §3

Data set [9] relates to Daudi. Briefly: Apoptosis by ATPLite after overnight incubation. It is filed as cell-based, human. Here is the method: as §3
In data set [10] the test system is Hs683. In words: Apoptosis by ATPLite after overnight incubation. It is filed as cell-based, human. On the procedure: as §3
In data set [11] the test system is Raji. Briefly: Apoptosis by ATPLite after overnight incubation. It counts as cell-based, human. On the procedure:
as §3

Data set [12] concerns U87. In words: Apoptosis by ATPLite after overnight incubation. It is filed as cell-based, human. On the procedure: as §3
Data set [13] has as its system primary B cells. In words: Apoptosis by ATPLite after overnight incubation. It counts as cell-based, human. Here is the method: as §3
Data set [14] has as its system U251-MG. Briefly: Apoptosis by ATPLite after overnight incubation. It is filed as cell-based, human. On the procedure: as §3
The test system of data set [15] is H-9. Briefly: Apoptosis by ATPLite after overnight incubation. It counts as cell-based, human. On the procedure: as §3
Data set [16] has as its system Molt-4. Briefly: Apoptosis by ATPLite after overnight incubation. It is filed as cell-based, human. Here is the method:
as §3

Data set [17] concerns SKW6.4. Briefly: Apoptosis by ATPLite after overnight incubation. It is filed as cell-based, human. Here is the method:
as §3

Data set [18] deals with U937. Briefly: Apoptosis by ATPLite after overnight incubation. It counts as cell-based, human. Here is the method: as §3
The subject of data set [19] is liver. In words: Induction of hepatitis in vivo by tetracycline-inducible adenoviral vectors. Details: species or system B6 mice. As to conditions: Ad/TRAIL inoculated mice; 10 μg soluble human TRAIL. On the procedure:
8-10 week-old female B6 mice are intravenously injected with 10^9 pfu of Ad/hTRAIL with the equal number of Ad/Tet-on. Mice are fed with different concentrations of tetracycline in their drinking water immediately after inoculation of adenoviral vectors. Liver injury is determined by serum levels of AST using an AST diagnostic kit (Sigma). Expression of TRAIL is determined by Northern blot analysis.

For data set [20], the system named is Jurkat cells. In words: Jurkat cell viability (ATPLite, MTT, PI exclusion). It is filed as cell-based, human. As to conditions: overnight, TRAIL plus crosslinker. On the procedure: as §3
The target in data set [21] is T1, DR4 (Homo sapiens, UniProt O00220).
T1 construct: The soluble recombinant human DR4, DcR1, DcR2, TNFR1, R4, and Fas molecules used are human IgG1 fusion proteins; human IgG1 Fc
In words: ELISA binding to immobilized DR4-Ig fusion protein. On the procedure: ELISA plates are coated with 2 μg/ml of DR4-Ig or DR5-Ig fusion protein overnight. […] The reactions are developed by TMB substrate buffer and measured by the Benchmark Microplate Reader (BioRad). The Kd values are estimated by the one-site binding model of non-linear regression using GraphPad Prism® software (GraphPad Software, San Diego, Calif.).
(An ELISA detects its analyte on a solid surface through an enzyme-linked reagent.)

The test system of data set [22] is Jurkat cells. In words: Apoptosis-inducing activity of humanized antibody on Jurkat cells (XTT). It counts as cell-based, human. As to conditions: 12 hours; serial 2-fold dilution from 100 ng/ml. Here is the method:
Jurkat cells cultured in RPMI1640 medium with 10% FCS (Gibco BRL) at 37° C. for 3 days in the presence of 5% CO2 are dispensed into each well of a 96-well microplate (Sumitomo Bakelite) at 50 μl per well. […] Each of the solutions of the expression products thus adjusted to 100 ng/ml is used to produce serial dilutions by repeating serial 2-fold dilution with RPMI1640 containing 10% FCS. […] After reacting at 37° C. for 12 hours, 50 μl of 25 μM PMS (phenazine methosulfate; Sigma Chemical Co.) containing 1 mg/ml XTT (2,3-bis [2-methoxy-4-nitro-5-sulfophenyl]-2H-tetrazolium-5-carboxyaniride inner salt; Sigma Chemical Co.) is added (final concentrations of 250 μg/ml for XTT and 5 μM for PMS). After incubating for 3 hours, the absorbance at 450 nm of each well is measured to calculate the cell viability by using the reduction ability of mitochondria as the index.
The viability of the cells in each well is calculated according to the following formula: Viability(%)=100×(a−b)/(c−b) wherein “a” is the measurement of a test well, “b” is the measurement of a well with no cells, and “c” is the measurement of a well with no antibody added.
Jurkat cells cultured in RPMI1640 medium with 10% FCS (Gibco BRL) at 37° C. for 3 days in the presence of 5% CO2 are dispensed into each well of a 96-well microplate (Sumitomo Bakelite) at 50 μl per well. […]
Background: Tetrazolium dyes change colour on reduction, which living cells bring about.

T1 sequence (O00220 24-239 limits assumed): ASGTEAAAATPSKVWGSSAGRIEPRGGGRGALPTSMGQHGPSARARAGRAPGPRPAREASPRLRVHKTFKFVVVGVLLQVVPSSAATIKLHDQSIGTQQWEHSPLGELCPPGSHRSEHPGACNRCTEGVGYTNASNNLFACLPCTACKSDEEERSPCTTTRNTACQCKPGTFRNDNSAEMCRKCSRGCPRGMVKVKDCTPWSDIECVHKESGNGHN

TNF-α: the “production/release of MMPs” value in data set [1] is recorded as “increased”.
For `Cn1cc(C2=C(c3cn(CCCN)c4ccccc34)C(=O)NC2=O)c2ccccc21` [BisVIII, Bisindolylmaleimide VIII], the “susceptibility of CLL B cells” value in data set [2] is given as “sensitive”.
In the case of `COc1cccc2c1C(=O)c1c(O)c3c(c(O)c1C2=O)C[C@@](O)(C(=O)CO)C[C@@H]3O[C@H]1C[C@H](N)[C@H](O)[C@H](C)O1` [adriamycin], the “effect on TRA-8-induced apoptosis” value in data set [3] (high doses of adriamycin) is “additive effect”; in data set [3] (low doses of adriamycin, some TRA-8 resistant lines) it was “synergistically enhance”.
Regarding IL-1b: proinflammatory cytokine, the “production/release of MMPs” value in data set [1] is “increased”.
In the case of “TRAIL: Soluble recombinant human TRAIL (aa residues 95 to 281) fused to a FLAG-tag, Alexis; used with anti-FLAG crosslinker”, the hepatocytes killed result is reported as “Over 20%” in data set [4] (6-hour culture period, 500 ng/ml TRAIL) and “more than 80%” in data set [4] (end of 24-hour culture, 1 μg/ml, TRAIL plus crosslinker). The susceptibility to apoptosis entry is recorded as “completely resistant” in data set [5]; “highly susceptible” in [7]; “very susceptible” in [8]; “much less susceptible” in data set [9]; “resistant” in data set [10]; “very susceptible” in data set [11]. Moreover, the susceptibility to apoptosis entry in data set [12] is reported as “exhibited sensitivity”; in [13], “did not undergo apoptosis”; in [14], “resistant”; in data set [15], “resistant”; in [16], “partially susceptible”; in [17], “very susceptible”. In addition, the susceptibility to apoptosis result in data set [18] is recorded as “partially susceptible”; in data set [20] it was “highly susceptible”. The cell death in data set [6] (RA929), in [6] (RA-716), in data set [6] (RA-811) and in [6] (RA-1014) was ~100% in each case. For the same molecule, the “liver injury after intravenous injection” value in data set [19] is listed as “did not exhibit increased liver injury”. Besides, in data set [21], the “binding activity to DR4” value is recorded as “bound to DR4”. The “production/release of MMPs” value in data set [1] is “not associated with increased release”.

B1: humanized TRA-8: humanized TRA-8, cotransfection of pHB14-1 and pSR/M2-1: H2 type heavy chain (SEQ ID No. 31), LM2 light chain (SEQ ID No. 46) (antibody)
VH: EVMLVESGGGLVQPGGSLRLSCAASGFTFSSYVMSWVRQAPGKGLEWVATISSGGSYTYYPDSVKGRFTISRDNAKNTLYLQMNSLRAEDTAVYYCARRGDSMITTDYWGQGTLVTVSS
light: DIVMTQSPSSLSASVGDRVTITCKASQDVGTAVAWYQQKPGKAPKLLIYWASTRHTGVPSRFSGSGSGTDFTLTISSLQPEDFATYYCQQYSSYRTFGQGTKVEIKRTVAAPSVFIFPPSDEQLKSGTASVVCLLNNFYPREAKVQWKVDNALQSGNSQESVTEQDSKDSTYSLSSTLTLSKADYEKHKVYACEVTHQGLSSPVTKSFNRGEC
As to B1, the induction of apoptosis entry in data set [22] was “induce apoptosis”.
